Values quoted from earlier work as cited in publication PMC2810191 (Biochemistry, 2009).

Tested on: Bacillus anthracis

Compound: CCc1nc(N)nc(N)c1C#CCc1cc(OC)ccc1OC [UCP120B, 2,4-diamino-5-(3-(2,5-dimethoxyphenyl)prop-1-ynyl)-6-ethyl-pyrimidine]
- inhibition of growth of the bacteria: modestly inhibits the growth of the bacteria
